For one experiment, the target named is B-Raf (Homo sapiens, UniProt P15056). The experiment in a line: B-Raf kinase activity assay (AlphaScreen, biotin-MEK1 substrate). To be noted: 100 μM ATP, 100 nM biotin-MEK1, 45 minutes at room temperature; read-out: Biochemical activity (IC50 μM) B-Raf. The method, boiled down:
(§1)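 AlphaScreen detection of phospho-MEK1 uses anti-phospho-MEK1/2 antibody and donor/acceptor beads, incubated 3 h. The kinase step runs 45 min at room temperature with 0.1 ng enzyme, 100 nM biotin-MEK1 and 100 μM ATP in 50 mM HEPES pH 7.0. IC50 is derived from eight compound concentrations.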
A general note: In Alpha technology, singlet oxygen from a donor bead excites a nearby acceptor bead.

Another experiment has as its target B-Raf V600E (Homo sapiens, UniProt P15056, V600E). Put plainly: B-Raf V600E kinase activity assay (AlphaScreen, biotin-MEK1 substrate). To be noted: 100 μM ATP, 100 nM biotin-MEK1, 45 minutes at room temperature, read-out: Biochemical activity (IC50 μM) V600E. The method, boiled down:
as §1

Experiment [1] relates to COLO205 colon adenocarcinoma (B-Raf V600E mutation). Put plainly: COLO205 cell growth inhibition (ATPlite luminescence). In kind it is cell-based. Conditions: Homo sapiens, COLO 205, 72 h, COLO205 cells, incubated 3 days with compound. As for the experimental part:
Compounds are assessed in a variety of cell based assays. For example human cell lines with B-Raf V600E mutation (A375 melanoma, SKMEL3 melanoma, and COLO205 colon adenocarcinoma), as well as tumorigenic cell lines with wild-type B-RAF (SW620 colon adenocarcinoma) or with Ras mutations (SKMEL2 melanoma and IPC298 melanoma). Similar assays may be used to assess additional tumorigenic cell lines with Ras mutations, including, but not limited to, M202, M207, M243, M244, M296, S117, HCT116, HCT15, DLD1, MiaPaCa, A549, NCI-H23, NCI-H460, HOP62, MDA-MB231, Hs-578T, HL60, MOLT-4, and CCRF-CEM.
On day 1, cells are counted, then centrifuged in a conical tube for 5 minutes at 1000 rpm. The supernatant is removed and cells are re-suspended as follows: • SW620 (ATCC catalog #CCL-27): resuspend in Leibovitz's L-15 medium, 2 mM L-glutamine, 10% fetal bovine serum to 6×10^4 cells/mL. • A375 (ATCC catalog #CRL-1619): resuspend in Dulbecco's modified Eagle's medium, 4 mM L-glutamine, 4.5 g/L D-glucose, 10% fetal bovine serum to 6×10^4 cells/mL. • COLO205 (ATCC catalog #CCL-222): resuspend in RPMI 1640, 2 mM L-glutamine, 1.5 g/L sodium bicarbonate, 4.5 g/L D-glucose, 10 mM HEPES, 1.0 mM sodium pyruvate, 10% fetal bovine serum to 6×10^4 cells/mL. • SKMEL2 (ATCC catalog #HTB-68): resuspend in Minimum Eagle essential medium, 2 mM L-glutamine, 1.5 g/L sodium bicarbonate, 0.1 mM non-essential amino acids, 1.0 mM sodium pyruvate, 10% fetal bovine serum to 6×10^4 cells/mL. • SKMEL3 (ATCC catalog #HTB-69): resuspend in McCoy's 5A medium, 1.5 mM L-glutamine, 15% fetal bovine serum to 6×10^4 cells/mL. • IPC298 (DSMZ catalog #ACC 251): resuspend in RPMI 1640, 2 mM L-glutamine, 10% fetal bovine serum to 6×10^4 cells/mL.
The cells are plated, 50 μL in each well of a 96-well dish (Corning 3610) and incubated at 37° C. in 5% CO2 overnight, cells plated to a final concentration of cells as follows:
On day 2, compound at a maximum concentration of 5 mM is serially diluted 1:3 (e.g. 10 μL with 30 μL dimethyl sulfoxide) for a total of 8 point titration with DMSO as a control. A 1 μL aliquot of each dilution point and control is added to 249 μL growth media and 50 μL is added to a well containing cells, providing 10 μM compound at the maximum concentration point. The cells are incubated for 3 days at 37° C. in 5% CO2.
On day 5, ATPlite 1 step Luminescence Assay System (Perkin Elmer #6016739) is brought to room temperature along with the cell cultures. ATPlite is added 25 μL to each well, shake for 2 minutes, and the cells are incubated at room temperature for 10 minutes, then luminescence is read on Safire reader. The measured luminescence correlates directly with cell number, such that the reading as a function of compound concentration is used to determine the IC50 value.
It is understood that the results of these assays may vary as assay conditions are varied. Inhibition levels determined under the conditions described herein represent a relative activity for the compounds tested under the specific conditions employed. The cell based assays are likely to show variability due to the complexity of the system and the sensitivity thereof to any changes in the assay conditions. […] Results for compounds that are tested and show substantially no inhibition below the highest tested concentration are represented as “-” in the tables below. In some instances, the compounds were not tested in all of the assays, or assay results were not valid, as indicated by NA in the tables below.
For orientation: In ATP-based viability assays light output follows the ATP content of the culture.

Another experiment concerns the target c-Raf-1 (Homo sapiens, UniProt P04049). Put plainly: c-Raf-1 kinase activity assay (AlphaScreen, biotin-MEK1 substrate). Conditions: 100 μM ATP, 100 nM biotin-MEK1, 45 minutes at room temperature; read-out: Biochemical activity (IC50 μM) c-Raf-1. As for the experimental part: Assays for biochemical and cell based activity are known in the art, for example, as described in PCT publication WO 2007/002433, the disclosure of which is hereby incorporated by reference as it relates to such assays. For example, the biochemical activity IC50 values are determined with respect to inhibition of B-Raf kinase activity, c-Raf-1 kinase activity, or B-Raf V600E kinase activity, where inhibition of phosphorylation of a peptide substrate is measured as a function of compound concentration. Compounds to be tested are diluted in dimethyl sulfoxide to a concentration of 0.1 mM. These are serially diluted 15 μL into 30 μL of dimethyl sulfoxide seven times in 96 well plates for a total of 8 dilution points, and for each dilution point 1 μL is added to a well of an assay plate. Plates are prepared such that each well in a 384 well plate contains 1 μL of compound in 10 μL, volume with 0.1 ng Raf enzyme (i.e. any of B-Raf, c-Raf-1 or B-Raf V600E, Upstate Biotechnology or prepared by methods known to one of skill in the art), 50 mM HEPES, pH 7.0, 50 mM NaCl, 2 mM MgCl2, 1 mM MnCl2, 0.01% Tween-20, 1 mM DTT, and 100 nM biotin-MEK1 as substrate. The reaction is started with addition of 10 μL of 200 μM ATP (i.e. final 100 μM ATP). After incubation of the kinase reaction for 45 minutes at room temperature, 5 μL/well of Stop Solution is added (25 mM Hepes pH 7.5, 100 mM EDTA, 0.01% BSA with donor beads (Streptavidin coated beads, Perkin Elmer), acceptor beads (Protein A coated, Perkin Elmer), and anti phosphor MEK1/2 antibody (CellSignal), each at final concentration 10 μg/mL). The plates are incubated for 3 hours at room temperature and read on Envision reader (Perkin Elmer). Phosphorylation of Mek1 results in binding of the anti-phosphor-MEK1/2 antibody and association of the donor and acceptor beads such that signal correlates with kinase activity. The signal vs. compound concentration is used to determine the IC50.

Chain of c-Raf-1 (P04049 whole entry Y340D/Y341D, form open): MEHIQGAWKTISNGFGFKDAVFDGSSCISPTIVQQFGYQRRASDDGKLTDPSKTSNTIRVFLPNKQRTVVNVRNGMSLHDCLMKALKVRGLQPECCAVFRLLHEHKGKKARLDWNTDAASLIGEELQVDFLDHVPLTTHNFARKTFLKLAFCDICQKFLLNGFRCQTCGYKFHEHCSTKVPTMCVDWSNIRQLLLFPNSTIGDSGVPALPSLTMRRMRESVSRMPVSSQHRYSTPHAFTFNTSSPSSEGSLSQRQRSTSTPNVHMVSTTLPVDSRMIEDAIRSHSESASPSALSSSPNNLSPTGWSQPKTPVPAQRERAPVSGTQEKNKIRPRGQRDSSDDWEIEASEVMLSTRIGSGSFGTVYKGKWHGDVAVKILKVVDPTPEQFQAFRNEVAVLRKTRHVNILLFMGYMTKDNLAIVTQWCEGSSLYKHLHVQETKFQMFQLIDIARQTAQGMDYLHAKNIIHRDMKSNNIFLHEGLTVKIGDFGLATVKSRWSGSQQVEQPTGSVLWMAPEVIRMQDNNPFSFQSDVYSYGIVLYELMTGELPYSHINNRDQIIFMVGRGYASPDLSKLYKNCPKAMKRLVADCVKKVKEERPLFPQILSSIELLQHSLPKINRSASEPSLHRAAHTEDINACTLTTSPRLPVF
Chain of B-Raf (P15056 whole entry): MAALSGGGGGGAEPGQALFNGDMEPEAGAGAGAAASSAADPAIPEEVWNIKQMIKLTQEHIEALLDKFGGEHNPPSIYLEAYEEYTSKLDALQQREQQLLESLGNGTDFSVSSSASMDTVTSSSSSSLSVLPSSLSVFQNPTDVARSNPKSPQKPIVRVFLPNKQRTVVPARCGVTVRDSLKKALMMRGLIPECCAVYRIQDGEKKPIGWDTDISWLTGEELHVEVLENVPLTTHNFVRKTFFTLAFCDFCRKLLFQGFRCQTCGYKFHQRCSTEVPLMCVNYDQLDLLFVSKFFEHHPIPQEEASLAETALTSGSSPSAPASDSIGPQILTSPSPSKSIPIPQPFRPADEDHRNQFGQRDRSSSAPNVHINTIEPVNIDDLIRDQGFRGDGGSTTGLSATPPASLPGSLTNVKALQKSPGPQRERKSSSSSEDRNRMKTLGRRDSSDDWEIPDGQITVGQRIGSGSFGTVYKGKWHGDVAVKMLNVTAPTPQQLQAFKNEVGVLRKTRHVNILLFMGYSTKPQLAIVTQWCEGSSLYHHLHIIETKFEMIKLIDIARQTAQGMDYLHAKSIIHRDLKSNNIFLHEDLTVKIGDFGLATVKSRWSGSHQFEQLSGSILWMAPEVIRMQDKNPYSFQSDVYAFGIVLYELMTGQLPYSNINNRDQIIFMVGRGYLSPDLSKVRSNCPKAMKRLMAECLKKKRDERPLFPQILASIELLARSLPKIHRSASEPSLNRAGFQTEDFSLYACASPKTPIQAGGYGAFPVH
Chain of B-Raf V600E (P15056 whole entry V600E): as the sequence (P15056 whole entry) above, with V600E counted along it

For `CCCS(=O)(=O)Nc1ccc(F)c(C(=O)c2c[nH]c3ncc(-c4cccc5[nH]ncc45)cc23)c1F` [P-0009, Propane-1-sulfonic acid {2,4-difluoro-3-[5-(1H-indazol-4-yl)-1H-pyrrolo[2,3-b]pyridine-3-carbonyl]-phenyl}-amide], the concentration for half-maximal inhibition (IC50) (on B-Raf; on B-Raf V600E; in experiment [1]; on c-Raf-1) was less than 1 µM in each case.

With `CCCS(=O)(=O)Nc1ccc(F)c(C(=O)c2c[nH]c3ncc(-c4ccc5scnc5c4)cc23)c1F` [P-0013, Propane-1-sulfonic acid [3-(5-benzothiazol-5-yl-1H-pyrrolo[2,3-b]pyridine-3-carbonyl)-2,4-difluoro-phenyl]-amide], the IC50 is less than 0.1 µM at B-Raf, less than 0.1 µM at B-Raf V600E, less than 1 µM in experiment [1] and less than 0.1 µM at c-Raf-1.

Regarding `CCCS(=O)(=O)Nc1ccc(F)c(C(=O)c2c[nH]c3ncc(-c4ccc5nccnc5c4)cc23)c1F` [P-0014, Propane-1-sulfonic acid [2,4-difluoro-3-(5-quinoxalin-6-yl-1H-pyrrolo[2,3-b]pyridine-3-carbonyl)-phenyl]-amide], the IC50 was less than 0.1 µM at B-Raf, less than 0.1 µM at B-Raf V600E, less than 1 µM in experiment [1] and less than 0.1 µM on c-Raf-1.

With `CCCS(=O)(=O)Nc1ccc(F)c(C(=O)c2c[nH]c3ncc(-c4cccc5[nH]ccc45)cc23)c1F` [P-0019, Propane-1-sulfonic acid {2,4-difluoro-3-[5-(1H-indol-4-yl)-1H-pyrrolo[2,3-b]pyridine-3-carbonyl]-phenyl}-amide], the IC50 at B-Raf was less than 0.1 µM; at B-Raf V600E it was less than 0.1 µM; in experiment [1], more than 1 µM; on c-Raf-1, less than 0.1 µM.

In the case of `CCCS(=O)(=O)Nc1ccc(F)c(C(=O)c2c[nH]c3ncc(-c4cn5ccccc5n4)cc23)c1F` [P-0021, Propane-1-sulfonic acid [2,4-difluoro-3-(5-imidazo[1,2-a]pyridin-2-yl-1H-pyrrolo[2,3-b]pyridine-3-carbonyl)-phenyl]-amide], the IC50 on B-Raf was less than 0.1 µM; at B-Raf V600E it was less than 0.1 µM; in experiment [1], less than 1 µM; at c-Raf-1, less than 0.1 µM.

For the compound `CCCS(=O)(=O)Nc1ccc(F)c(C(=O)c2c[nH]c3ncc(-c4cn5ccc(C(F)(F)F)nc5n4)cc23)c1F` [P-0022, Propane-1-sulfonic acid {2,4-difluoro-3-[5-(7-trifluoromethyl-imidazo[1,2-a]pyrimidin-2-yl)-1H-pyrrolo[2,3-b]pyridine-3-carbonyl]-phenyl}-amide], the IC50 at B-Raf is less than 0.1 µM; on B-Raf V600E, less than 0.1 µM; in experiment [1] it was more than 1 µM; on c-Raf-1 it was less than 0.1 µM.

For `CCCS(=O)(=O)Nc1ccc(F)c(C(=O)c2c[nH]c3ncc(-c4ccc5[nH]nc(C)c5c4)cc23)c1F` [P-0024, Propane-1-sulfonic acid {2,4-difluoro-3-[5-(3-methyl-1H-indazol-5-yl)-1H-pyrrolo[2,3-b]pyridine-3-carbonyl]-phenyl}-amide], the IC50 on B-Raf is less than 0.1 µM; at B-Raf V600E, less than 0.1 µM; in experiment [1] it was less than 1 µM; on c-Raf-1, less than 0.1 µM.

In the case of `CCCS(=O)(=O)Nc1ccc(F)c(C(=O)c2c[nH]c3ncc(-c4cnn(-c5ncccn5)c4)cc23)c1F` [P-1005, Propane-1-sulfonic acid {2,4-difluoro-3-[5-(1-pyrimidin-2-yl-1H-pyrazol-4-yl)-1H-pyrrolo[2,3-b]pyridine-3-carbonyl]-phenyl}-amide], the IC50 was less than 0.1 µM at B-Raf, less than 0.1 µM on B-Raf V600E, less than 1 µM in experiment [1] and less than 0.1 µM at c-Raf-1.

For `CCCS(=O)(=O)Nc1ccc(F)c(C(=O)c2c[nH]c3ncc(-c4cnn(-c5nnn[nH]5)c4)cc23)c1F` [P-1008, Propane-1-sulfonic acid (2,4-difluoro-3-{5-[1-(1H-tetrazol-5-yl)-1H-pyrazol-4-yl]-1H-pyrrolo[2,3-b]pyridine-3-carbonyl}-phenyl)-amide], the IC50 was less than 0.1 µM on B-Raf, less than 0.1 µM at B-Raf V600E, more than 1 µM in experiment [1] and less than 0.1 µM on c-Raf-1.

As usually defined, the IC50 is the concentration at which inhibition is half-maximal.
